# From US6368831B1, “Treatment of hyperproliferative disorders” (Childrens Hospital Los Angeles, priority 1998, dated 2002)
# Columns and labels:
# [1] = system: SK-N-RA neuroblastoma cells; assay: DIMSCAN cytotoxicity assay, SK-N-RA; type: cell-based; settings: for Combination Index (C.I.) at LD99: PPMP isomer plus HPR at 1:1 micromolar ratio, +96-120 hours
# Experimental: (§1) Cytotoxicity is determined using the DIMSCAN assay system (R. Proffitt et al., Cytometry 24, 204-213 (1996); T. Frgala et al., Proc. AACR, 36, 303 (1995). The system employs digital imaging microscopy to quantify viable cells, which selectively accumulate fluorescein diacetate to become brightly fluorescent. The system is capable of measuring cytotoxicity over a 4-5 log dynamic range by quenching the residual fluorescence of dead and dying cells with eosin Y and quantifying the total fluorescence of viable cells using digital thresholding. Measured fluorescence is directly proportionate to the number of viable cells. A comparison of the total fluorescence of a drug-treated cell population to the fluorescence of a similar number of untreated cells yields a survival fraction. In brief, 5000 to 10,000 SK-N-RA neuroblastoma cells/well are replicate plated into 60 wells of a 96-well tissue culture plate in 0.1 cc media and allowed to attach overnight. Drug(s) are then added in 0.05 cc media to the final concentrations indicated. There are 12 wells treated per drug concentration. Twelve wells receive drug-vector only to the appropriate final concentration and serve as controls for the plate. Cells are incubated for 96-120 hours at 37° C. in 5% CO2. Fluorescein diacetate is then added to each well in 0.05 cc media to a final concentration of 8 microgram/cc. Cells are incubated for a further 15 minutes at 37° C. and 0.03 cc of 0.5% eosin Y is added to each well. Total fluorescence of viable cells is then measured by digital imaging microscopy.
# As reported above, we have succeeded in increasing the cytotoxicity of 4-HPR through inhibition of several ceramide-related pathways. Most of the inhibitors used have been only studied in vitro. […]
# Methods. […] Cytotoxocity is expressed as the fraction of cells surviving (Survival Fraction, S.F.). […] Cytotoxic synergy was analyzed by Combination Index (C.I.) analysis calculated at the dose lethal to 99% of exposed cells (LD99). Statistical analysis of the differences in mean cytotoxicity was evaluated by the unpaired, two-sided Student's t test.
# [2] = system: MCF7/GCS cells; assay: DIMSCAN cytotoxicity assay, MCF7/GCS tet OFF vs tet ON; type: cell-based, human; settings: 96 hours, P<0.005 at >6 μM HPR, safingol 0-4 μM
# Source text: We have shown that HPR generates ceramide in neuroblastoma tumor cell lines in a dose- and time-depenent manner (B. Maurer et al., J. Natl. Cancer Inst. (1999)(in press)). Glucosylceramide (GC) is a nontoxic metabolite of ceramide. Ceramide is converted into glucosylceramide by the action of glucosylceramide synthase (GCS). Glucosylceramide synthase (GCS) has been transfected into human MCF7 breast cancer cells in a tetracycline-inducible expression construct in the MCF7/GCS cell line (Y. Liu et al., J. Biol. Chem. 274:1140-46 (1999)). […] We have exposed MCF7/GCS cells to HPR, safingol and HPR+safingol in the absence, and in the presence, of doxycycline.
# Methods. MCF7/GCS cells were plated and incubated in RPMI medium with 10% fetal bovine serum and 200 microgram/ml Hygromycin B (tet OFF) for DIMSCAN cytotoxicity assays as previously described. To increase GCS expression, MCF7/GCS cells were also incubated in the above medium with 3 microgram/ml doxycycline (tet ON) for three days prior to replating them for DIMSCAN cytotoxicity assay. DIMSCAN assays with doxycycline-induced (tet ON) cells also included 3 microgram/ml doxycycline in the medium. Both “tet OFF” and “tet ON” MCF7/GCS cells were exposed to HPR, safingol and HPR+safingol (3:1 molar ratio) for 96 hours and assayed for survival fraction by DIMSCAN as previously described.
# [3] = system: LAN-6 neuroblastoma cells; assay: DIMSCAN cytotoxicity assay, LAN-6; type: cell-based, human; settings: +144 hours; for cell survival on addition of safingol to the retinoid: retinoid plus safingol 3:1 molar ratio vs retinoid alone
# Experimental: as §1, with “A comparison of the total fluorescence of a drug-treated cell population to the fluorescence of a similar number of untreated cells yields a survival fraction.” left out
# (§2) Methods. Cells were added in 100 μL whole medium per well to 96-well microplates for DIMSCAN cytotoxicity assay as previously described. Cell lines used were the neuroblastoma cell lines CHLA-90 and LAN-6. At Time=0, either all-trans-retinoic acid (ATRA), 13-cis-retinoic acid (13-cis-RA) or a combination of retinoid plus safingol at a 3:1 molar ratio were added in 50 μL whole medium. Plates were incubated and assayed for cytotoxicity by DIMSCAN assay at +120 for CHLA-90 cells and+144 hours for LAN-6 cells.
# [4] = Phase I; one hour infusion at 120 mg/m^2; cited from earlier work
# [5] = system: CHLA-90 neuroblastoma cells; assay: DIMSCAN cytotoxicity assay, CHLA-90; type: cell-based; settings: for Combination Index (C.I.) at LD99: PPMP isomer plus HPR at 1:1 micromolar ratio, +96-120 hours; for cell survival on addition of safingol to the retinoid: retinoid plus safingol 3:1 molar ratio vs retinoid alone
# Experimental: as §1, §2
# Methods. To determine the manner in which 4-HPR or HPR+safingol induced cell death in neuroblastoma cells, morphological evidence of apoptosis and/or necrosis was assessed in CHLA-90 cells in the presence or absence of a specific as inhibitor of apoptosis, the neural cell-penetrant, pan-caspase enzyme inhibitor, BOC-d-fink (Enzyme Systems Products, Livermore, Calif.). […] CHLA-90 cells were plated in duplicate in whole medium in Lab Tek chamber slides (Nunc, Naperville, Ill.), allowed to attach for 24 hours, and then treated in the presence or absence of BOC-d-fink (40 μM) for one hour prior to treatment with HPR (10 μM). Control cells were treated with vehicle solvents of 0. 1% ethanol (4-HPR) and/or 0.2% DMSO (BOC-d-fink). Morphological features of apoptosis (DNA condensation and/or apoptotic bodies) were visualized in undetached cells at +24 or +48 hours using blue nuclear fluorescence induced by the supravital DNA stain Hoechst 33342 (10 μg/ml for 30 mins at 37° C.), while necrotic cells and advanced apoptotic cells were recognized by red fluorescent staining with propidium iodide (0.5 μM/ml). Red fluorescently-staining cells with condensed nuclear remnants were scored as apoptotic cells. For cells assayed at +48 hours, additional BOC-d-fink (40 μM) or appropriate control vehicle was added at +24 hours. Cells were observed using filters appropriate for each dye sequentially on an Olympus Vanox epifluorescence microscope. Mutiple random fields of cells (of ˜100-500 cells each) were counted and photographed for viable cells, apoptotic cells, and necrotic cells. To further examine cells treated with HPR, cytotoxicity assays were performed on CHLA-90 cells pretreated with or without 40 μM BOC-d-fmk for one hour prior to the addition of 4-HPR (3-10 μM) and assayed at +24 hours by DIMSCAN assay to assess the effect of caspase inhibition on viability. […]
# [6] = system: Neuro2a neuroblastoma cells; settings: cited from earlier work
# [7] = system: CHLA-90 cells; assay: Flow cytometry sub G0/G1 DNA content, CHLA-90; type: cell-based, human; settings: BOC-d-fmk 40 μM, HPR 10 μM, +24 hours
structure (smiles),measurement,setting,value
"CCCCCCCCCCCCC/C=C/[C@@H](O)[C@H](CO)N(C)C [N-DMS, d-erythro-N,N-dimethylsphingosine]",cytotoxicity when added to fenretinide and PPMP,"[1]; 5 μM fenretinide fixed plus 5 μM PPMP fixed plus N-DMS, 20% O2",increased cytotoxicity
"CCCCCCCCCCCCCCC[C@H](O)[C@@H](N)CO [Safingol, (2S,3S)-2-amino-1,3-octadecanediol]","change of cytotoxicity in tet ON (doxycycline, GCS induced) compared to tet OFF cells",[2],no significant decrease
same,Survival Fraction,[3]; safingol alone at 4 μM,0.39
same,reported toxicities,[4],no reported toxicities
same,serum levels during infusion,[4],3000 nM
same,Survival Fraction,"[5]; safingol alone at 4 μM, +120 hours",0.11
"CCCCCCCCCCCCCCCC(=O)NC(CN1CCOCC1)C(O)c1ccccc1 [D,L-threo-PPMP, 1-phenyl-2-palmitoylamino-3-morpholino-1-propanol]",Combination Index (C.I.) at LD99,[1],< 0.01
same,Combination Index (C.I.) at LD99,[5],< 0.09
"CC1=C(/C=C/C(C)=C/C=C/C(C)=C/C(=O)O)C(C)(C)CCC1 [ATRA, all-trans-retinoic acid]",cell survival on addition of safingol to the retinoid,[3],significant decrease in the cell survival
same,cell survival on addition of safingol to the retinoid,[5]; +120 hours,significant decrease in the cell survival
same,increase in the level of ceramide,[6],1.5 ×
"CCCCCCCCCCCCCCCC(=O)NC(CN1CCOCC1)C(O)c1ccccc1 [D,L-erythro-PPMP, 1-phenyl-2-palmitoylamino-3-morpholino-1-propanol]",Combination Index (C.I.) at LD99,[1],< 0.06
same,Combination Index (C.I.) at LD99,[5],0.18
COC(=O)CC(NC(=O)OC(C)(C)C)C(=O)CF (stereo not drawn) [BOC-d-fmk],sub G0/G1 DNA-fragmentation induced by HPR,[7],abrogated
"CC1=C(/C=C/C(C)=C/C=C/C(C)=C\C(=O)O)C(C)(C)CCC1 [13-cis-RA, 13-cis-retinoic acid]",cell survival on addition of safingol to the retinoid,[3],significant decrease in the cell survival
same,cell survival on addition of safingol to the retinoid,[5]; +120 hours,significant decrease in the cell survival
